Read-outs that look alike come from different tables or passages of the source.
Key:
GSK3α = GSK3α (Homo sapiens, UniProt P49840); assay: GSK3α kinase assay (Caliper LabChip3000 mobility shift, fluoresceinated peptide substrate)
Experimental: (§1) The kinase assay was performed in V-bottom 384-well plates. […] The reaction was incubated at room temperature for 20 hours and terminated by adding 45 μl of 35 mM EDTA to each sample. The reaction mixture was analyzed on the Caliper LabChip3000 (Caliper, Hopkinton, Mass.) by electrophoretic separation of the unphosphorylated substrate and phosphorylated product. […] Compounds were dissolved at 10 mM in dimethylsulfoxide (DMSO) and evaluated at eleven concentrations. IC50 values were derived by non-linear regression analysis.

pTau = pTau assay (no method described); type: cell-based
GSK3β = GSK3β (Homo sapiens, UniProt P49841); assay: GSK3β kinase assay (Caliper LabChip3000 mobility shift, fluoresceinated peptide substrate); type: biochemical
Experimental: as §1

[1] = 250 pM enzyme, 20 uM ATP, 1.5 uM peptide, 20 hours room temperature, first value of cell GSK3β/GSK3α, read-out: GSK3β (nM), IC50

Chain of GSK3α (P49840 whole entry, species assumed): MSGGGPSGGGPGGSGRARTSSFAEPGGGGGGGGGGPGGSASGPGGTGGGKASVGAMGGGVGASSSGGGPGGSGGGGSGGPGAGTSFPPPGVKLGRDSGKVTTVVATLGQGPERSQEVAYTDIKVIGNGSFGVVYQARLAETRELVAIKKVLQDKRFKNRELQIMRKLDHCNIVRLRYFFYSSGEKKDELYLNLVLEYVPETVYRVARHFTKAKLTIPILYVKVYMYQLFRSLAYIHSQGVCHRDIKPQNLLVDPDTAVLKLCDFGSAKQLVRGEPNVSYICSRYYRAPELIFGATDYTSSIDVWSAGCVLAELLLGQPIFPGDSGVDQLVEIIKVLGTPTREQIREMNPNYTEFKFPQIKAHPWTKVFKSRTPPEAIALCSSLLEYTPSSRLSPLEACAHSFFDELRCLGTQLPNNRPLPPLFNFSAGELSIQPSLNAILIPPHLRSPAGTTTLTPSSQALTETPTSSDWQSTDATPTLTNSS
Chain of GSK3β (P49841 whole entry, species assumed): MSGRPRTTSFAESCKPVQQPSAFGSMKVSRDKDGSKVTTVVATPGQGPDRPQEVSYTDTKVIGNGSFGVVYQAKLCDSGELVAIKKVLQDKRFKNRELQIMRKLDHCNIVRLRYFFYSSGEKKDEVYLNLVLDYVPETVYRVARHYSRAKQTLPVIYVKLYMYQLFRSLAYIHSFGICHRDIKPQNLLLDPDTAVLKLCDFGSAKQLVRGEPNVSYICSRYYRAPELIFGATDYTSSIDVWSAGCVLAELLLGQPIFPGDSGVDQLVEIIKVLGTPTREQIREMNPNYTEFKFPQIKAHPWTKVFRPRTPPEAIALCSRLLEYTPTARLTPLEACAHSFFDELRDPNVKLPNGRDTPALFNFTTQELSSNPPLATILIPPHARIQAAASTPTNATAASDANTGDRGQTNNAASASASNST

Compound | IC50 (GSK3α) [nM] | IC50 (pTau) [nM] | IC50 (GSK3β; [1]) [nM] | IC50 (GSK3β) [nM]
O=C(Nc1cnccc1OCC(F)(F)F)c1ccnc(Nc2ccc3cnccc3c2)n1 [Example 106, 2-(Isoquinolin-6-ylamino)-N-(4-(2,2,2-trifluoroethoxy)pyridin-3-yl)pyrimidine-4-carboxamide] | 0.09 | 1.9 | 0.11 | 
O=C(Nc1cnccc1OCC(F)(F)F)c1ccnc(Nc2ccc3cccnc3c2)n1 [Example 107, 2-(Quinolin-7-ylamino)-N-(4-(2,2,2-trifluoroethoxy)pyridin-3-yl)pyrimidine-4-carboxamide] | 0.24 | 9.4 | 0.17 | 
O=C(Nc1cnc(F)cc1OCC(F)(F)F)c1ccnc(Nc2ccc(C(F)(F)F)cc2)n1 [Example 109, N-(6-Fluoro-4-(2,2,2-trifluoroethoxy)pyridin-3-yl)-2-((4-(trifluoromethyl)phenyl)amino) pyrimidine-4-carboxamide] | 0.43 | 44 | 0.88 | 
O=C(Nc1cnc(F)cc1OCC(F)(F)F)c1ccnc(Nc2ccc(Cl)cc2)n1 [Example 110, 2-((4-Chlorophenyl)amino)-N-(6-fluoro-4-(2,2,2-trifluoroethoxy)pyridin-3-yl)pyrimidine-4-carboxamide] | 0.68 | 65 | 1.1 | 
O=C(Nc1cnccc1OCC(F)(F)F)c1ccnc(Nc2ccc(C(F)(F)F)cn2)n1 [Example 111, N-(4-(2,2,2-Trifluoroethoxy)pyridin-3-yl)-2-((5-(trifluoromethyl)pyridin-2-yl)amino)pyrimidine-4-carboxamide] | 2.2 | 220 | 2.9 | 
O=C(Nc1cnccc1OCC(F)(F)F)c1ccnc(Nc2ccc(F)cc2F)n1 [Example 113, 2-((2,4-Difluorophenyl)amino)-N-(4-(2,2,2-trifluoroethoxy)pyridin-3-yl)pyrimidine-4-carboxamide] | 4 | 300 | 5.3 | 
O=C(Nc1cnccc1OCC(F)(F)F)c1ccnc(Nc2ccccn2)n1 [Example 114, 2-(Pyridin-2-ylamino)-N-(4-(2,2,2-trifluoroethoxy)pyridin-3-yl)pyrimidine-4-carboxamide] | 14 | 210 |  | 20
O=C(Nc1cnccc1OCC(F)(F)F)c1ccnc(NC2CCCC2)n1 [Example 116, 2-(Cyclopentylamino)-N-(4-(2,2,2-trifluoroethoxy)pyridin-3-yl)pyrimidine-4-carboxamide] | 0.16 | 12 | 0.19 | 
O=C(Nc1cnccc1OCC(F)(F)F)c1ccnc(NC2CCCCC2)n1 [Example 117, 2-(Cyclohexylamino)-N-(4-(2,2,2-trifluoroethoxy)pyridin-3-yl)pyrimidine-4-carboxamide] | 0.21 | 28 | 0.25 | 
O=C(Nc1cnccc1OCC(F)(F)F)c1ccnc(NCC2CC2)n1 [Example 118, 2-((Cyclopropylmethyl)amino)-N-(4-(2,2,2-trifluoroethoxy)pyridin-3-yl)pyrimidine-4-carboxamide] | 0.28 | 14 | 0.3 | 
CC(C)Nc1nccc(C(=O)Nc2cnccc2OCC(F)(F)F)n1 [Example 120, 2-(Isopropylamino)-N-(4-(2,2,2-trifluoroethoxy)pyridin-3-yl)pyrimidine-4-carboxamide] | 1.4 | 26 | 0.44 | 
CC(C)(C)C1CCC(Nc2nccc(C(=O)Nc3cnccc3OCC(F)(F)F)n2)CC1 (stereo not drawn) [Example 121, 2-((4-(tert-Butyl)cyclohexyl)amino)-N-(4-(2,2,2-trifluoroethoxy)pyridin-3-yl)pyrimidine-4-carboxamide] | 0.35 | 61 | 0.46 | 
CC(C)(C)[C@H]1CC[C@@H](Nc2nccc(C(=O)Nc3cnccc3OCC(F)(F)F)n2)CC1 [Example 122] | 12 | 4200 | 8.4 | 
CCNc1nccc(C(=O)Nc2cnccc2OCC(F)(F)F)n1 [Example 123, 2-(Ethylamino)-N-(4-(2,2,2-trifluoroethoxy)pyridin-3-yl)pyrimidine-4-carboxamide] | 4.5 | 55 | 0.92 | 
O=C(Nc1cnccc1OCC(F)(F)F)c1ccnc(NC2CCOCC2)n1 [Example 124, 2-((Tetrahydro-2H-pyran-4-yl)amino)-N-(4-(2,2,2-trifluoroethoxy)pyridin-3-yl)pyrimidine-4-carboxamide] | 0.95 | 68 |  | 0.99
CC(C)C(C)Nc1nccc(C(=O)Nc2cnccc2OCC(F)(F)F)n1 (stereo not drawn) [Example 125, 2-((3-Methylbutan-2-yl)amino)-N-(4-(2,2,2-trifluoroethoxy)pyridin-3-yl)pyrimidine-4-carboxamide] | 0.84 | 55 | 1.1 | 

Compound | IC50 (GSK3α) [nM] | IC50 (pTau) [nM] | IC50 (GSK3β; [1]) [nM] | IC50 (GSK3β) [nM]
CC(Nc1nccc(C(=O)Nc2cnccc2OCC(F)(F)F)n1)C(C)(C)C (stereo not drawn) [Example 126, 2-((3,3-Dimethylbutan-2-yl)amino)-N-(4-(2,2,2-trifluoroethoxy)pyridin-3-yl)pyrimidine-4-carboxamide] | 0.41 | 110 | 1.1 | 
O=C(Nc1cnccc1OCC(F)(F)F)c1ccnc(NCc2ccccc2)n1 [Example 128, 2-(Benzylamino)-N-(4-(2,2,2-trifluoroethoxy)pyridin-3-yl)pyrimidine-4-carboxamide] | 1.3 | 210 | 1.2 | 
O=C(Nc1cnccc1OCC(F)(F)F)c1ccnc(NCc2ccccc2F)n1 [Example 129, 2-((2-Fluorobenzyl)amino)-N-(4-(2,2,2-trifluoroethoxy)pyridin-3-yl)pyrimidine-4-carboxamide] | 1.8 | 180 | 1.5 | 
O=C(Nc1cnccc1OCC(F)(F)F)c1ccnc(NC2CC2)n1 [Example 130, 2-(Cyclopropylamino)-N-(4-(2,2,2-trifluoroethoxy)pyridin-3-yl)pyrimidine-4-carboxamide] | 1.5 | 46 | 1.6 | 
O=C(Nc1cnccc1OCC(F)(F)F)c1ccnc(NCc2ccc(F)cc2)n1 [Example 131, 2-((4-Fluorobenzyl)amino)-N-(4-(2,2,2-trifluoroethoxy)pyridin-3-yl)pyrimidine-4-carboxamide] | 2.2 | 160 | 1.8 | 
O=C(Nc1cnccc1OCC(F)(F)F)c1ccnc(NCc2ccc3c(c2)OCO3)n1 [Example 132, 2-((Benzo[d][1,3]dioxol-5-ylmethyl)amino)-N-(4-(2,2,2-trifluoroethoxy)pyridin-3-yl)pyrimidine-4-carboxamide] | 2.2 | 220 |  | 1.9
CC1CC(Nc2nccc(C(=O)Nc3cnccc3OCC(F)(F)F)n2)CC(C)O1 (stereo not drawn) [Example 133, 2-((2,6-Dimethyltetrahydro-2H-pyran-4-yl)amino)-N-(4-(2,2,2-trifluoroethoxy)pyridin-3-yl)pyrimidine-4-carboxamide] | 38 | 380 | 1.9 | 
O=C(Nc1cnccc1OCC(F)(F)F)c1ccnc(NCc2ccc(C(F)(F)F)cc2)n1 [Example 134, N-(4-(2,2,2-Trifluoroethoxy)pyridin-3-yl)-2-((4-(trifluoromethyl)benzyl)amino)pyrimidine-4-carboxamide] | 5.4 | 310 | 2.8 | 
CNc1nccc(C(=O)Nc2cnccc2OCC(F)(F)F)n1 [Example 135, 2-(Methylamino)-N-(4-(2,2,2-trifluoroethoxy)pyridin-3-yl)pyrimidine-4-carboxamide] | 14 | 400 | 3.6 | 
O=C(Nc1cnccc1OCC(F)(F)F)c1ccnc(NCc2ccccc2C(F)(F)F)n1 [Example 137, N-(4-(2,2,2-Trifluoroethoxy)pyridin-3-yl)-2-((2-(trifluoromethyl)benzyl)amino)pyrimidine-4-carboxamide] | 2.3 | 350 | 4.1 | 
CC(Nc1nccc(C(=O)Nc2cnccc2OCC(F)(F)F)n1)c1ccccc1 (stereo not drawn) [Example 138, 2-((1-Phenylethyl)amino)-N-(4-(2,2,2-trifluoroethoxy)pyridin-3-yl)pyrimidine-4-carboxamide] | 3.2 | 430 | 6.1 | 
O=C(Nc1cnccc1OCC(F)(F)F)c1ccnc(NCc2cccc(C(F)(F)F)c2)n1 [Example 139, N-(4-(2,2,2-Trifluoroethoxy)pyridin-3-yl)-2-((3-(trifluoromethyl)benzyl)amino)pyrimidine-4-carboxamide] | 5.4 | 570 | 6.3 | 
O=C(Nc1cnccc1OCC(F)(F)F)c1ccnc(NCc2cccc(F)c2)n1 [Example 140, 2-((3-Fluorobenzyl)amino)-N-(4-(2,2,2-trifluoroethoxy)pyridin-3-yl)pyrimidine-4-carboxamide] | 1.6 | 280 | 1.3 | 
O=C(Nc1cnccc1OCC(F)(F)F)c1ccnc(NCC(F)(F)F)n1 [Example 141, N-(4-(2,2,2-Trifluoroethoxy)pyridin-3-yl)-2-((2,2,2-trifluoroethyl)amino)pyrimidine-4-carboxamide] | 8 | 300 | 7.8 | 
CN1CCC(Nc2nccc(C(=O)Nc3cnccc3OCC(F)(F)F)n2)CC1 [Example 142, 2-((1-Methylpiperidin-4-yl)amino)-N-(4-(2,2,2-trifluoroethoxy)pyridin-3-yl)pyrimidine-4-carboxamide] | 12 | 1000 |  | 14
CC(Nc1nccc(C(=O)Nc2cnccc2OCC(F)(F)F)n1)C12CC3CC(CC(C3)C1)C2 (stereo not drawn) [Example 143, 2-((1-(Adamantan-1-yl)ethyl)amino)-N-(4-(2,2,2-trifluoroethoxy)pyridin-3-yl)pyrimidine-4-carboxamide] | 73 | 4900 | 33 | 

Source: patent publication US10752609B2, “GSK-3 inhibitors” (priority 2016, dated 2020)
